For one data set, the system named is T1, CpGTRL2 (Cp17.190).
T1 construct: full-length untagged, codon-optimized cRNA in Xenopus laevis oocytes; primer encodes N-term MEMDGKE
The experiment in a line: TEVC currents in Xenopus oocytes, Michaelis-Menten fit. It counts as cell-based, Carica papaya. The following applies: pH 5, -60 mV membrane potential.

The target of the next data set is T2, Me14G074000 (Manihot esculenta, UniProt A0A2C9ULI5).
T2 construct: gene MANES_14G074000v8; full-length untagged, codon-optimized cRNA in Xenopus laevis oocytes; primer encodes N-term MATGETI
T2 sequence (A0A2C9ULI5 entry or part of it): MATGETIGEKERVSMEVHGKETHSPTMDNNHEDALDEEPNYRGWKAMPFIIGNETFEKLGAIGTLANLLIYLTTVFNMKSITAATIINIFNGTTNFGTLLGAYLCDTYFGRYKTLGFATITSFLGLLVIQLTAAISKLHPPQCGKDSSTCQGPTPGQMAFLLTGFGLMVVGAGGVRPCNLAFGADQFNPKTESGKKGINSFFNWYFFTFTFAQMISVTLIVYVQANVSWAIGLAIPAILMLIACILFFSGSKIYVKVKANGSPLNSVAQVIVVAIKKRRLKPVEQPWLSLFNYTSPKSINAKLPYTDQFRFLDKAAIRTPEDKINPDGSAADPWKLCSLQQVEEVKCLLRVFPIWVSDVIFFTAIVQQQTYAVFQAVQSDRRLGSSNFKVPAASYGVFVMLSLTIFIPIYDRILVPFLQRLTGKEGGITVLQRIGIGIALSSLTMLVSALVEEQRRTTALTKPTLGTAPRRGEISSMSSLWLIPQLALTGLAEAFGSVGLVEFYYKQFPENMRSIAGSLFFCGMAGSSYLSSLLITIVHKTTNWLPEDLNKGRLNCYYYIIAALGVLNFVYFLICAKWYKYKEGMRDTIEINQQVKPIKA
The experiment in a line: oocyte uptake, LC-MS. It counts as cell-based. The following applies: 0.2 mM substrate, pH 5, 60 min.

The target of another data set is T3, BrGTR1 (BrF01711) (Brassica rapa, UniProt A0A8D9DAH7).
T3 construct: gene BRAPAZ1V2_A06P20680.2; full-length untagged, codon-optimized cRNA in Xenopus laevis oocytes; primer encodes N-term MERKPFE
T3 sequence (A0A8D9DAH7 1-615): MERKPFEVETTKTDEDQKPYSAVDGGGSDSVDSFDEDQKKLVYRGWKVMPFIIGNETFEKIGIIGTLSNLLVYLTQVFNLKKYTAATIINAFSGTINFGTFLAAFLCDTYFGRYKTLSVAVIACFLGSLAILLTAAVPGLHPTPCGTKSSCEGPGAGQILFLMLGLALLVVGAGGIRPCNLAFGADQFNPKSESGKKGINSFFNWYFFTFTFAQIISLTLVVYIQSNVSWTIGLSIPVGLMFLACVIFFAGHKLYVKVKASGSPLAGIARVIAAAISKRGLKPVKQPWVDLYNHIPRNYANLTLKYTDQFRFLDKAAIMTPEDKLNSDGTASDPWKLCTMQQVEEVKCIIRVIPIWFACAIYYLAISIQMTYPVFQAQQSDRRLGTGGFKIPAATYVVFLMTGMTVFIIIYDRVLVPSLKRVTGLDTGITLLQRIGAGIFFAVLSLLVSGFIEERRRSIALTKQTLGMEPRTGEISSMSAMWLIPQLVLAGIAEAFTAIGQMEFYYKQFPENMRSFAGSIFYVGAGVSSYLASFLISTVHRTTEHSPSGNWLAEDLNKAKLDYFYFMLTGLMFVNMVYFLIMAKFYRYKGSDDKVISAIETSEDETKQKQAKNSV
Description: oocyte uptake, LC-MS; TEVC currents. It is filed as cell-based. The following applies: […] substrate, pH […] min.

In the next data set the target is T4, GTR1 (AtGTR1, NPF2.10) (Arabidopsis thaliana, UniProt Q944G5).
T4 construct: full-length untagged, cRNA in Xenopus laevis oocytes
T4 sequence (Q944G5 1-636): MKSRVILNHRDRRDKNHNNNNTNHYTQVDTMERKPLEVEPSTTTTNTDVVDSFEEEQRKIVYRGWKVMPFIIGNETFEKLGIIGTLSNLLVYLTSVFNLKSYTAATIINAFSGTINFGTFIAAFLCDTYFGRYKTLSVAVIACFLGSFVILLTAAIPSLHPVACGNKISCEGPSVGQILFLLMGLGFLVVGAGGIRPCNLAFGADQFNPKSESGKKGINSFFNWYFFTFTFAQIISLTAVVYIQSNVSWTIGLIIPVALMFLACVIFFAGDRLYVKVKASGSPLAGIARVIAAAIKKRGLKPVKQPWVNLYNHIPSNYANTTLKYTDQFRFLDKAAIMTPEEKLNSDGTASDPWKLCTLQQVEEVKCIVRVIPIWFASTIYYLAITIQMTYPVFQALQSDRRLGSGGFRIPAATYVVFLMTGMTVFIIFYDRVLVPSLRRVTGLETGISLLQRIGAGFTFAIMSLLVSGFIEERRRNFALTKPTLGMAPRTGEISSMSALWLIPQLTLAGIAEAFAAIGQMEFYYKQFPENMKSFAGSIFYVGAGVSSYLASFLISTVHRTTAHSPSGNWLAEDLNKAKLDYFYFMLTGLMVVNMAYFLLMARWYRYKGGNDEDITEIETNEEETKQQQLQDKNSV
Description: TEVC currents in Xenopus oocytes, Michaelis-Menten fit. It counts as cell-based. Particulars: pH 5, -60 mV membrane potential.

In a further data set the target is T5, GTR3 (NPF2.9, At1g18880) (Arabidopsis thaliana, UniProt Q9M9V7).
T5 construct: full-length untagged, cRNA in Xenopus laevis oocytes
T5 sequence (Q9M9V7 1-587): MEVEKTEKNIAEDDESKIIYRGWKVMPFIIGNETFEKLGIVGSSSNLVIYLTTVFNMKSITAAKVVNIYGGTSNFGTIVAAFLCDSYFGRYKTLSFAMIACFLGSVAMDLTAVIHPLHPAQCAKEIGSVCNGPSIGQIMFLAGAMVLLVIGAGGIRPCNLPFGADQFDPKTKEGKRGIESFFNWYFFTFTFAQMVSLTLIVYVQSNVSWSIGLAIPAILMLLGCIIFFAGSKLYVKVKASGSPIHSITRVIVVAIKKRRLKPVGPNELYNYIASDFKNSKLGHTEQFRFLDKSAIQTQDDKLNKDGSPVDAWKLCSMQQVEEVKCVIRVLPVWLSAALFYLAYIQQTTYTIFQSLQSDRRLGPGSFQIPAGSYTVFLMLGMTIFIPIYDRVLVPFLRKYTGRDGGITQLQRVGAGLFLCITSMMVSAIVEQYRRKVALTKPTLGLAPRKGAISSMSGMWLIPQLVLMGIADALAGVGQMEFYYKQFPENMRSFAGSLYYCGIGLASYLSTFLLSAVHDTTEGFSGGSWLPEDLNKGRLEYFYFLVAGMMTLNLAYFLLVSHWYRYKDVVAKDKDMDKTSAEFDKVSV
The description is as above. It counts as cell-based. Particulars: pH 5, -60 mV membrane potential.

The target in another data set is T6, GTR2 (AtGTR2, NPF2.11) (Arabidopsis thaliana, UniProt Q9LV10).
T6 construct: full-length untagged, cRNA in Xenopus laevis oocytes
T6 sequence (Q9LV10 1-616): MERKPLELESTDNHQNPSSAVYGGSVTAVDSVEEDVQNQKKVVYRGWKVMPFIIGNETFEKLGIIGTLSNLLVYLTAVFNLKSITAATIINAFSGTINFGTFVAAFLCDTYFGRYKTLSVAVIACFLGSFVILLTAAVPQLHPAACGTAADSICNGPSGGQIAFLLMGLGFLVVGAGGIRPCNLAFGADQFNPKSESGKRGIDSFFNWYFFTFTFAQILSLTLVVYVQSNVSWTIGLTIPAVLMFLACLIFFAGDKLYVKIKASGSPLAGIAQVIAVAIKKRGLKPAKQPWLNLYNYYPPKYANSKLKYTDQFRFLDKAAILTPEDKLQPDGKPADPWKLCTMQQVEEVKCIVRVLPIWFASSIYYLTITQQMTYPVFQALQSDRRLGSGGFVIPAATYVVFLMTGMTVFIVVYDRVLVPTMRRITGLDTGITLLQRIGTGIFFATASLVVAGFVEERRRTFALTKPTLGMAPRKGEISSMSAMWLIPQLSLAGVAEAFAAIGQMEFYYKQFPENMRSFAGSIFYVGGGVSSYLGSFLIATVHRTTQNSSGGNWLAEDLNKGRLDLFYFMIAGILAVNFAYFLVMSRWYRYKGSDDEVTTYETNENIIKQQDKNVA
The data set is described as above. It counts as cell-based. Particulars: pH 5, -60 mV membrane potential.

For another data set, the target named is T7, BrGTR3 (BrH02396) (Brassica rapa, UniProt A0A397YP93).
T7 construct: gene BRARA_H02396; full-length untagged, codon-optimized cRNA in Xenopus laevis oocytes; primer encodes N-term MEVEKTQE
T7 sequence (A0A397YP93 1-591): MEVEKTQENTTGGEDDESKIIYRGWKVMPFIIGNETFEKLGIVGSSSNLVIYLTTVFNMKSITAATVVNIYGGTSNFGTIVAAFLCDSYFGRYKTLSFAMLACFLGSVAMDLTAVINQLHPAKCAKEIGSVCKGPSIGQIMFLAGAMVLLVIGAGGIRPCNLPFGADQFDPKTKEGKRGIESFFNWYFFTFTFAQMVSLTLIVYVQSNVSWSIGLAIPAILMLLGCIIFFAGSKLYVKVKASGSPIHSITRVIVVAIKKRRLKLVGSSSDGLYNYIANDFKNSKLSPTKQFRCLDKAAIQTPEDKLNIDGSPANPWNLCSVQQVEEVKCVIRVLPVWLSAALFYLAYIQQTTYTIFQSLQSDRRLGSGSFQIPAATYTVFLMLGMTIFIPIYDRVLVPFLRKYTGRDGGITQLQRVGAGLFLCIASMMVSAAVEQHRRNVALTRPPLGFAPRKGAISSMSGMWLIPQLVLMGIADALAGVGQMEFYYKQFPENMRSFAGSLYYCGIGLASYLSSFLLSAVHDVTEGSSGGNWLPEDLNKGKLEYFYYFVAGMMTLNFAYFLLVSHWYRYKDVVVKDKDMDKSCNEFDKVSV
Description: oocyte uptake, LC-MS; TEVC currents. The following applies: […] substrate, pH […] min. It counts as cell-based.

For the next data set, the target named is T8, Me15G176100 (Manihot esculenta, UniProt A0A2C9UH66).
T8 construct: gene MANES_15G175484v8; full-length untagged, codon-optimized cRNA in Xenopus laevis oocytes; primer encodes N-term MEDKEEKS
T8 sequence (A0A2C9UH66 entry or part of it): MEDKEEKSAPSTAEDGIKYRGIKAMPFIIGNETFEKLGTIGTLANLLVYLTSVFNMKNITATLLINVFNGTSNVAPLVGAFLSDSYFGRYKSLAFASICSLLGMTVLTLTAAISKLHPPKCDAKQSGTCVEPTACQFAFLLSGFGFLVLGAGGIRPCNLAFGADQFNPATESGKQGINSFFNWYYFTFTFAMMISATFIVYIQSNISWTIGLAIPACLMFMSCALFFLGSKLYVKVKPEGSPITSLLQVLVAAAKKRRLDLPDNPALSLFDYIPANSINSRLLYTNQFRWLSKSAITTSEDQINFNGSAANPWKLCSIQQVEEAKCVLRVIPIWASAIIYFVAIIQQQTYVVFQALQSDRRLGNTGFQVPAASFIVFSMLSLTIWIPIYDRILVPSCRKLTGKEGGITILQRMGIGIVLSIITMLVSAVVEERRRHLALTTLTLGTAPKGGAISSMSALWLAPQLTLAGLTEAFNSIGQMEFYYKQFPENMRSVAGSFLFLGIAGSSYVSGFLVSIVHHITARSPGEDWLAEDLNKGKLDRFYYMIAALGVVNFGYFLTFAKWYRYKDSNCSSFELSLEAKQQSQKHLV
Description: oocyte uptake, LC-MS. It counts as cell-based. Particulars: 0.2 mM substrate, pH 5, 60 min.

Substrate in data set [1]: N#C[C@H](O[C@@H]1O[C@H](CO)[C@@H](O)[C@H](O)[C@H]1O)c1ccccc1
Description: TEVC currents in Xenopus oocytes, Michaelis-Menten fit. The following applies: pH 5, -60 mV membrane potential. It is filed as cell-based, Manihot esculenta.

Substrate in data set [2]: CC(C)(C#N)O[C@@H]1O[C@H](CO)[C@@H](O)[C@H](O)[C@H]1O
Described as above. The following applies: pH 5, -60 mV membrane potential. It counts as cell-based, Manihot esculenta.

Turning to `CSCCCC/C(=N/OS(=O)(=O)O)S[C@@H]1O[C@H](CO)[C@@H](O)[C@H](O)[C@H]1O` [4MTB, 4-methylthiobutyl glucosinolate], the Michaelis-Menten constant (Km) with CpGTRL2 (Cp17.190) was 85 ± 12 µM. For the same molecule, on Me14G074000, the “oocyte uptake, LC-MS” value is “Me14G074000 from cassava over-accumulated both 4MTB and I3M relative to external media”. Besides, the “oocyte uptake, LC-MS; TEVC currents” value on BrGTR1 (BrF01711) is “BrGTR1 ortholog (BrF01711) transported 4MTB and I3M with similar efficiency”.
Regarding `O=S(=O)(O)O/N=C(/Cc1c[nH]c2ccccc12)S[C@@H]1O[C@H](CO)[C@@H](O)[C@H](O)[C@H]1O` [I3M, indol-3-yl-methyl glucosinolate], the Km is under 25 µM on GTR1 (AtGTR1, NPF2.10); under 25 µM at GTR3 (NPF2.9, At1g18880); under 25 µM on GTR2 (AtGTR2, NPF2.11). Also, the “oocyte uptake, LC-MS; TEVC currents” value at BrGTR1 (BrF01711) is “BrGTR1 ortholog (BrF01711) transported 4MTB and I3M with similar efficiency”; on BrGTR3 (BrH02396) it was “strong preference for I3M by the tested BrGTR3 ortholog (BrH02396)”.
In the case of `N#C[C@H](O[C@@H]1O[C@H](CO)[C@@H](O)[C@H](O)[C@H]1O)c1ccccc1` [prunasin], the “oocyte uptake, LC-MS” value on Me15G176100 is recorded as “Uptake of prunasin was detected in oocytes expressing Me15G176100”; at Me14G074000 it was “Me14G074000 from cassava accumulated prunasin, but not linamarin, to levels equivalent to media”.

B1: MeCGTR1 (Me15G180400) (Manihot esculenta) (protein)
chain: MENGNDHAQDQQKSIEKDEEPVINYRGIKAMPFIIGNETFEKLGTVGSSTNLVVYLNTVFNLKSVTATTLVNIFNGTTNLAPLLGAFLCDTYFGRYKTLGFASVASFLGMSALALTAAVPTLHPPKCVGKESSQCVGPSIWQLAFLLCGFGLIAIGAGGIRPCNLAFGAEQFNPNTESGKRGMSSFFNWYYFTYTFAVMVSVTGIVYVQSDVSWAIGLAIPAFLMFLSCAVFFIGTKIYVIVKPEGSPITSVVQVLVVSVKKRGLKLPQNPAVSLFNYVPAKSINSRLSHTEQFSFLDKAAIVTEKDEINLDGSAANPWRLCSIQQVEEVKCMVRIIPIWASAIIYHVPLIQQQTYAVLQALQLDRRLGTGSFEIPAATFIIFTMLALTIWIPIYDRILVPFLQRLTGKEGGFTLLQRMGIGILLSVLCMFVSGLVESHRRDIALSKPTLGISPKGGAVSSMTWLWLVPQLALAGLSEGFNYVSQIEFYYKQFPENMRSIAGSSFFAGLALANFLSGLLVSTIHKITSATKSGDWLSEDLNKGKLDHFYYVIGVLGTVNMAYFLLCAKWYRYKVREDDGSVEMSNKSSVKHHV
notes: full-length untagged, codon-optimized cRNA in Xenopus laevis oocytes (pNB1u); primer encodes N-term MENGNDH
With B1, the Michaelis-Menten constant (Km) came to 80 ± 7 µM in data set [1] and 262 ± 15 µM in data set [2].

What is called Km is the substrate concentration at which the rate is half of its maximum.
